Where two headings read alike, the source gives them in different places.
Experiments:
[1] = set-up: species or system humans; conditions: for ALfemale (allowable limit): adult females, 58 kg body weight; for ALmale (allowable limit): adult males, 70 kg body weight
Procedure: Toxicological risk assessment of five previously characterized byproducts, per Sayoun, J; Crepet A; Gouanve F; Keromnes L; Espuche E. 2017. “Diffusion mechanism of byproducts resulting from the peroxide crosslinking of polyethylene.” J. Appl. Polym. Sci. 44525. doi: 10.1002/APP.44525, was carried out following ISO 10993-17:2002. Quantification was based on the maximum amount of chemical exposures from the anticipated maximum number of implants a patient may receive (in this case, 4 implants). An exhaustive literature search for toxicity data was conducted specific to each chemical of interest. This was accomplished via ToxPlanet (a federated search engine that extracts the content from 500+ websites). Biocompatibility endpoints were determined based on ISO 10993-1:2018 and recent United States Food and Drug Administration (US Food and Drug Administration 2016a. “Use of International Standard ISO-10993, ‘Biological evaluation of medical devices—Part 1: Evaluation and testing within a risk management process’: Guidance for Industry and Food and Drug Administration Staff.” Center for Devices and Radiological Health (CDRH), 68p). These endpoints include chronic toxicity, reproductive and developmental toxicity, genotoxicity, carcinogenicity, and sensitization.
The in silico methods utilized an expert-rule-based program (Toxtree version 3.1.0; Ideaconsult Ltd., 2018) and the statistics-based program VEGA version 1.2.8 and Benfenati, E; Manganaro, A; Gini, G. 2013. “VEGA-QSAR: AI inside a platform for predictive toxicology.” In CEUR Workshop Proceedings, Volume 1107: Proceedings of The Second Workshop on Popularize Artificial Intelligence, (PAI 2013), Turin, Italy), consistent with the International Council for Harmonisation of Technical Requirements for Pharmaceuticals for Human Use (ICH) and US FDA guidelines for the assessment of DNA reactive impurities in pharmaceuticals (M7 guidelines; International Council for Harmonisation of Technical Requirements for Pharmaceuticals for Human Use (ICH). 2017a. “ICH Harmonised Guideline: Assessment and Control of DNA Reactive (Mutagenic) Impurities in Pharmaceuticals to Limit Potential Carcinogenic Risk M7(R1) (Current Step 4 Version); US Food and Drug Administration (US FDA 2018. “Guidance for Industry: M7(R1) Assessment and Control of DNA Reactive (Mutagenic) Impurities in Pharmaceuticals to Limit Potential Carcinogenic Risk.” Center for Drug Evaluation and Research (CDER), Center for Biologics Evaluation and Research (CBER)).
The allowable limit (AL) was calculated using the no-observed-adverse-effect level (NOAEL) limits ascertained from the literature search and in silico methods described above. The NOAELs were then adjusted by the average body weight (BW) for adult males (70 kg) and adult females (58 kg). Following the recommendations of ISO 10993-17 and ICH Q3C(R7) (International Organization for Standardization (ISO). 2002. “ISO 10993-17: Biological Evaluation of Medical Devices—Part 17: Establishment of Allowable Limits for Leachable Substances.” ISO 10993-17: 2002; International Council for Harmonisation of Technical Requirements for Pharmaceuticals for Human Use (ICH). 2018. “ICH Harmonised Guideline: Impurities: Guideline for Residual Solvents Q3C(R7) (Current Step 4 Version).”), the values were then adjusted by a series of uncertainty factors (UFs). UF1=10 to account for interindividual variation; UF2=5 for extrapolation of effects from rats to humans; UF3=10 to account for extrapolation from an oral exposure study to systemic exposure risk associated with an implanted device; UF4=5 to account for extrapolation of results from a 90-day toxicity study in rodents to lifetime exposure associated with a permanent implant; and UF5=10 to account for extrapolation of a lowest-observed-adverse-effect level (LOAEL) to a NOAEL, if needed.

[2] = cited from earlier work

Structure (SMILES)	ALfemale (allowable limit) [1]	ALmale (allowable limit) [1]	half-life temperature ([2]; for 1 minute)	half-life temperature ([2]; for 1 hour)	half-life temperature ([2]; for 10 hours)
CC(C)(O)c1ccccc1 [Cumyl alcohol]	1,800 μg/day	1,800 μg/day			
CC(=O)c1ccccc1 [Acetophenone]	9,810 μg/day	11,800 μg/day			
C=C(CC(C)(C)c1ccccc1)c1ccccc1 [2,4-Diphenyl-4-methyl-1-pentene]	232 µg/day	280 µg/day			
CC(C)(OOC(C)(C)c1ccccc1)c1ccccc1 [Dicumyl peroxide]	1,860 μg/day	2,240 μg/day	120 °C	80 °C	61 °C
